# Measured values reported in ChEMBL document CHEMBL3885881, “DrugMatrix”.
# Organism: Rattus norvegicus
# Assay: DrugMatrix - Regimen: Daily Repeat
# Format: toxicity, organism-based, Sprague-Dawley
# Parameters: regimen Daily Repeat, gender Male, age 6-8 weeks
# Conditions: in vivo, sc, 0 mg/kg, route mini-PUMP - SUBCUTANEOUS, dose level Control, vehicle 100 % SALINE; for ABSOLUTE BASOPHIL / ABSOLUTE EOSINOPHIL / ABSOLUTE LYMPHOCYTE / ABSOLUTE MONOCYTE / ABSOLUTE SEGMENTED NEUTROPHIL / BASOPHIL / EOSINOPHIL / ERYTHROCYTE COUNT / HEMATOCRIT / HEMOGLOBIN / LEUKOCYTE COUNT / LYMPHOCYTE / MEAN CORPUSCULAR HEMOGLOBIN / MEAN CORPUSCULAR HEMOGLOBIN CONCENTRATION / MEAN CORPUSCULAR VOLUME / MONOCYTE / NEUTROPHIL / NUCLEATED RED BLOOD CELLS / PLATELET COUNT: tissue Blood; for ALANINE AMINOTRANSFERASE / ALBUMIN / ALKALINE PHOSPHATASE / ASPARTATE AMINOTRANSFERASE / BLOOD UREA NITROGEN / CARBON DIOXIDE / CHLORIDE / CHOLESTEROL / CREATININE / GLUCOSE / LACTATE DEHYDROGENASE / LIPASE / PHOSPHORUS / POTASSIUM / SODIUM / TOTAL BILIRUBIN / TOTAL PROTEIN / URIC ACID: tissue Plasma
structure (smiles),measurement,setting,value
NC[C@H](O)c1ccc(O)c(O)c1 [NOREPINEPHRINE],ABSOLUTE BASOPHIL,"72 h, time 3 day",0 CELLS/uL
same,ABSOLUTE EOSINOPHIL,"72 h, time 3 day",77.17 CELLS/uL
same,ABSOLUTE LYMPHOCYTE,"72 h, time 3 day",14293.83 CELLS/uL
same,ABSOLUTE MONOCYTE,"72 h, time 3 day",354 CELLS/uL
same,ABSOLUTE SEGMENTED NEUTROPHIL,"72 h, time 3 day",1658.33 CELLS/uL
same,BASOPHIL,"72 h, time 3 day",0%
same,EOSINOPHIL,"72 h, time 3 day",0.5%
same,ERYTHROCYTE COUNT,"72 h, time 3 day",6.27 x10E6/uL
same,HEMATOCRIT,"72 h, time 3 day",36.95%
same,HEMOGLOBIN,"72 h, time 3 day",13.4 G/DL
same,LEUKOCYTE COUNT,"72 h, time 3 day",16.38 x10E3/uL
same,LYMPHOCYTE,"72 h, time 3 day",87.17%
same,MEAN CORPUSCULAR HEMOGLOBIN,"72 h, time 3 day",21.42 pg
same,MEAN CORPUSCULAR HEMOGLOBIN CONCENTRATION,"72 h, time 3 day",36.27 G/DL
same,MEAN CORPUSCULAR VOLUME,"72 h, time 3 day",59.03 fL
same,MONOCYTE,"72 h, time 3 day",2%
same,NEUTROPHIL,"72 h, time 3 day",10.33%
same,NUCLEATED RED BLOOD CELLS,"72 h, time 3 day",0 /100WBC
same,PLATELET COUNT,"72 h, time 3 day",904.67 x10E3/uL
same,ALANINE AMINOTRANSFERASE,"72 h, time 3 day",48.33 u/L
same,ALBUMIN,"72 h, time 3 day",3.82 G/DL
same,ALKALINE PHOSPHATASE,"72 h, time 3 day",282.33 u/L
same,ASPARTATE AMINOTRANSFERASE,"72 h, time 3 day",86.83 u/L
same,BLOOD UREA NITROGEN,"72 h, time 3 day",20.17 mg/dL
same,CARBON DIOXIDE,"72 h, time 3 day",34.67 mmol/L
same,CHLORIDE,"72 h, time 3 day",102 MEQ/L
same,CHOLESTEROL,"72 h, time 3 day",71.5 mg/dL
same,CREATININE,"72 h, time 3 day",0.2 mg/dL
same,GLUCOSE,"72 h, time 3 day",136.83 mg/dL
same,LACTATE DEHYDROGENASE,"72 h, time 3 day",159 u/L
same,LIPASE,"72 h, time 3 day",9 u/L
same,PHOSPHORUS,"72 h, time 3 day",10.12 mg/dL
same,POTASSIUM,"72 h, time 3 day",5.92 MEQ/L
same,SODIUM,"72 h, time 3 day",147.8 MEQ/L
same,TOTAL BILIRUBIN,"72 h, time 3 day",0.2 mg/dL
same,TOTAL PROTEIN,"72 h, time 3 day",6.05 G/DL
same,URIC ACID,"72 h, time 3 day",1.4 mg/dL
same,ABSOLUTE BASOPHIL,"120 h, time 5 day",0 CELLS/uL
same,ABSOLUTE EOSINOPHIL,"120 h, time 5 day",0 CELLS/uL
same,ABSOLUTE LYMPHOCYTE,"120 h, time 5 day",14257.33 CELLS/uL
same,ABSOLUTE MONOCYTE,"120 h, time 5 day",326 CELLS/uL
same,ABSOLUTE SEGMENTED NEUTROPHIL,"120 h, time 5 day",3216.67 CELLS/uL
same,BASOPHIL,"120 h, time 5 day",0%
same,EOSINOPHIL,"120 h, time 5 day",0%
same,ERYTHROCYTE COUNT,"120 h, time 5 day",6.11 x10E6/uL
same,HEMATOCRIT,"120 h, time 5 day",36.22%
same,HEMOGLOBIN,"120 h, time 5 day",13.18 G/DL
same,LEUKOCYTE COUNT,"120 h, time 5 day",17.8 x10E3/uL
same,LYMPHOCYTE,"120 h, time 5 day",80.5%
same,MEAN CORPUSCULAR HEMOGLOBIN,"120 h, time 5 day",21.62 pg
same,MEAN CORPUSCULAR HEMOGLOBIN CONCENTRATION,"120 h, time 5 day",36.42 G/DL
same,MEAN CORPUSCULAR VOLUME,"120 h, time 5 day",59.37 fL
same,MONOCYTE,"120 h, time 5 day",1.83%
same,NEUTROPHIL,"120 h, time 5 day",17.67%
same,NUCLEATED RED BLOOD CELLS,"120 h, time 5 day",0 /100WBC
same,PLATELET COUNT,"120 h, time 5 day",1311 x10E3/uL
same,ALANINE AMINOTRANSFERASE,"120 h, time 5 day",47 u/L
same,ALBUMIN,"120 h, time 5 day",3.83 G/DL
same,ALKALINE PHOSPHATASE,"120 h, time 5 day",260.33 u/L
same,ASPARTATE AMINOTRANSFERASE,"120 h, time 5 day",76.17 u/L
same,BLOOD UREA NITROGEN,"120 h, time 5 day",14.67 mg/dL
same,CARBON DIOXIDE,"120 h, time 5 day",31.33 mmol/L
same,CHLORIDE,"120 h, time 5 day",101.17 MEQ/L
same,CHOLESTEROL,"120 h, time 5 day",75 mg/dL
same,CREATININE,"120 h, time 5 day",0.16 mg/dL
same,GLUCOSE,"120 h, time 5 day",152.67 mg/dL
same,LACTATE DEHYDROGENASE,"120 h, time 5 day",147.33 u/L
same,LIPASE,"120 h, time 5 day",9.33 u/L
same,PHOSPHORUS,"120 h, time 5 day",10.97 mg/dL
same,POTASSIUM,"120 h, time 5 day",6 MEQ/L
same,SODIUM,"120 h, time 5 day",145.52 MEQ/L
same,TOTAL BILIRUBIN,"120 h, time 5 day",0.17 mg/dL
same,TOTAL PROTEIN,"120 h, time 5 day",5.83 G/DL
same,URIC ACID,"120 h, time 5 day",1.27 mg/dL
same,ABSOLUTE BASOPHIL,"[…], time 14 day",0 CELLS/uL
same,ABSOLUTE EOSINOPHIL,"[…], time 14 day",64.5 CELLS/uL
same,ABSOLUTE LYMPHOCYTE,"[…], time 14 day",12507.83 CELLS/uL
same,ABSOLUTE MONOCYTE,"[…], time 14 day",380.33 CELLS/uL
same,ABSOLUTE SEGMENTED NEUTROPHIL,"[…], time 14 day",2414 CELLS/uL
same,BASOPHIL,"[…], time 14 day",0%
same,EOSINOPHIL,"[…], time 14 day",0.5%
same,ERYTHROCYTE COUNT,"[…], time 14 day",6.1 x10E6/uL
same,HEMATOCRIT,"[…], time 14 day",35.4%
same,HEMOGLOBIN,"[…], time 14 day",12.88 G/DL
same,LEUKOCYTE COUNT,"[…], time 14 day",15.37 x10E3/uL
same,LYMPHOCYTE,"[…], time 14 day",80.83%
same,MEAN CORPUSCULAR HEMOGLOBIN,"[…], time 14 day",21.18 pg
same,MEAN CORPUSCULAR HEMOGLOBIN CONCENTRATION,"[…], time 14 day",36.43 G/DL
same,MEAN CORPUSCULAR VOLUME,"[…], time 14 day",58.17 fL
same,MONOCYTE,"[…], time 14 day",2.17%
same,NEUTROPHIL,"[…], time 14 day",16.5%
same,NUCLEATED RED BLOOD CELLS,"[…], time 14 day",0.17 /100WBC
same,PLATELET COUNT,"[…], time 14 day",1016 x10E3/uL
same,ALANINE AMINOTRANSFERASE,"[…], time 14 day",53.33 u/L
same,ALBUMIN,"[…], time 14 day",3.93 G/DL
same,ALKALINE PHOSPHATASE,"[…], time 14 day",319.83 u/L
same,ASPARTATE AMINOTRANSFERASE,"[…], time 14 day",84 u/L
same,BLOOD UREA NITROGEN,"[…], time 14 day",15.5 mg/dL
same,CARBON DIOXIDE,"[…], time 14 day",34 mmol/L
same,CHLORIDE,"[…], time 14 day",101.83 MEQ/L
same,CHOLESTEROL,"[…], time 14 day",57 mg/dL
same,CREATININE,"[…], time 14 day",0.21 mg/dL
same,GLUCOSE,"[…], time 14 day",182.33 mg/dL
same,LACTATE DEHYDROGENASE,"[…], time 14 day",104.67 u/L
same,LIPASE,"[…], time 14 day",9.17 u/L
same,PHOSPHORUS,"[…], time 14 day",11.12 mg/dL
same,POTASSIUM,"[…], time 14 day",5.81 MEQ/L
same,SODIUM,"[…], time 14 day",144.85 MEQ/L
same,TOTAL BILIRUBIN,"[…], time 14 day",0.18 mg/dL
same,TOTAL PROTEIN,"[…], time 14 day",5.92 G/DL
same,URIC ACID,"[…], time 14 day",1.38 mg/dL
